The record followed here is patent publication US8987474B2 (University of South Florida, priority 2006, dated 2015).

“And” between values parts separate entries of the source, which are not always exact repeats. Identical values can stand only once. Like-named read-outs stand apart in the source and are kept apart here.

Assay [1] deals with Shp2 (Homo sapiens (Human), UniProt Q06124). Description: PTP activity assay (DiFMUP substrate) with GST-Shp2. The assay is classed as biochemical. The settings on record: for IC50: Table II, Shp2. From the text:
(§1) All constructs were verified by DNA sequencing.
(§2) Recombinant DEP1 was from Abcam.

In assay [2] the target is T1, Shp1 (Homo sapiens (Human), UniProt P29350).
T1 sequence (P29350 203-595): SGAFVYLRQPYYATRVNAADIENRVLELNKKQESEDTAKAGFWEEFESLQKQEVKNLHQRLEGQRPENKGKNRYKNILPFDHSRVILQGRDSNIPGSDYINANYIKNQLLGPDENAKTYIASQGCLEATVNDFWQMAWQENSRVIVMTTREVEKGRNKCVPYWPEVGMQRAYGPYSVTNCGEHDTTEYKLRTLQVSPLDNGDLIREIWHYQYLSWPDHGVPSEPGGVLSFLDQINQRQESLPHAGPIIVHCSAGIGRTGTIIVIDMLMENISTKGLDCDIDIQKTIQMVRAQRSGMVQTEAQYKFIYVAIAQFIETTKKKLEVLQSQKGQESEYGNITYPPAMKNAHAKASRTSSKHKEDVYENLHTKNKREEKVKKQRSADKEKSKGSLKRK
Assay [3] addresses T1, Shp1. Description: biochemical.
In assay [4] the target is PTP1B (Homo sapiens (Human), UniProt P18031). Description: PTP activity assay (DiFMUP substrate) with GST-PTP1B. The assay is classed as biochemical. Particulars: in vitro.
PTP1B, sequence (P18031 whole entry): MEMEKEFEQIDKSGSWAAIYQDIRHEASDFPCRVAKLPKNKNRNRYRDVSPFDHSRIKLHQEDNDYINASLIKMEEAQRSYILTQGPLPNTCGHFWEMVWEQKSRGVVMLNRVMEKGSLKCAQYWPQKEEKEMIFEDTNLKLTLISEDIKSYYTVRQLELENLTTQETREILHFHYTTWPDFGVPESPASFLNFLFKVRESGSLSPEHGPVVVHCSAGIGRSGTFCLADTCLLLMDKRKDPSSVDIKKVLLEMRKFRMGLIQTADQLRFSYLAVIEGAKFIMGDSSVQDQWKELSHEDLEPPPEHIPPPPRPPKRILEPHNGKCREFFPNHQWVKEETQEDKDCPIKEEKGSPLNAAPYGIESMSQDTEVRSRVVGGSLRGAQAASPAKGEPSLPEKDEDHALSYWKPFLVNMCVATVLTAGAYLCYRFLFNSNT
Excerpt: as §1, §2

The target of assay [5] is DEP1 (Homo sapiens (Human), UniProt Q12913). Description: PTP activity assay (DiFMUP substrate) with recombinant DEP1. The assay is classed as biochemical. Particulars: DEP1, in vitro.
DEP1, sequence (Q12913 36-1337): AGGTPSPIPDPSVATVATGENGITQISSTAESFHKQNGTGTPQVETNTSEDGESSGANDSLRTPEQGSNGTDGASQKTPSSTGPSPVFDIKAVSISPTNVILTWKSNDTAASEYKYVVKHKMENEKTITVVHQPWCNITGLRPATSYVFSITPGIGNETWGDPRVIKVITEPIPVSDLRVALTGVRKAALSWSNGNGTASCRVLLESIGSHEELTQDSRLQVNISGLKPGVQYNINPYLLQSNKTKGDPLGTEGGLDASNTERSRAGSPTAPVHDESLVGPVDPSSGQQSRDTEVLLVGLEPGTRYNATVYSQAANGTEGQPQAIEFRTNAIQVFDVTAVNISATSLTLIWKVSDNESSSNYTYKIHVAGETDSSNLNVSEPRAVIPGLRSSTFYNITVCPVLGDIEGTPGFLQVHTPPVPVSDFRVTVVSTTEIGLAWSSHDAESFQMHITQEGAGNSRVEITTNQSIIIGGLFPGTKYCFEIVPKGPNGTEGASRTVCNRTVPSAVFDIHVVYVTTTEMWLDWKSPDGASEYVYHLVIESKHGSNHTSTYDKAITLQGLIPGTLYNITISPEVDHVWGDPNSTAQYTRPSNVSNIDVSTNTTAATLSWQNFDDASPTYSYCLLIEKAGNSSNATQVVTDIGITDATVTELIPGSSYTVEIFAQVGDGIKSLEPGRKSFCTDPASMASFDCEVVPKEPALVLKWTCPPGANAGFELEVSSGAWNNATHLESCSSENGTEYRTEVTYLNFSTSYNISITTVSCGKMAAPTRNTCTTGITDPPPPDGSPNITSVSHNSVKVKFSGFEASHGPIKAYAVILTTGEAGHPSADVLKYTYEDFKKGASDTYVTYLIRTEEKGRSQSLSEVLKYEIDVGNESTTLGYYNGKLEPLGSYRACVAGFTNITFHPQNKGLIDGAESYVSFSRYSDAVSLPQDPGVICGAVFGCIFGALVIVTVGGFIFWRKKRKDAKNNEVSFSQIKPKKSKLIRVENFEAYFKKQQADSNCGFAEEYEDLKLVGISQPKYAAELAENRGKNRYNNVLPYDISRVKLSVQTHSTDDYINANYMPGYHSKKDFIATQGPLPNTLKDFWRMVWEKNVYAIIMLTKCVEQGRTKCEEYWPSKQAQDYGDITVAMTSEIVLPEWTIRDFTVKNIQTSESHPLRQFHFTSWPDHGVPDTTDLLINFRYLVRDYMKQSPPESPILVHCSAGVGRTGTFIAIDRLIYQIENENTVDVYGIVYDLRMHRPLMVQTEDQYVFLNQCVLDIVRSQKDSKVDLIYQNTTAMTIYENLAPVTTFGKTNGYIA
The target in assay [6] is CD45 (Homo sapiens (Human), UniProt P08575). Description: PTP activity assay (DiFMUP substrate) with recombinant CD45. Format: biochemical. The settings on record: CD45, in vitro.
CD45, sequence (P08575 609-1306): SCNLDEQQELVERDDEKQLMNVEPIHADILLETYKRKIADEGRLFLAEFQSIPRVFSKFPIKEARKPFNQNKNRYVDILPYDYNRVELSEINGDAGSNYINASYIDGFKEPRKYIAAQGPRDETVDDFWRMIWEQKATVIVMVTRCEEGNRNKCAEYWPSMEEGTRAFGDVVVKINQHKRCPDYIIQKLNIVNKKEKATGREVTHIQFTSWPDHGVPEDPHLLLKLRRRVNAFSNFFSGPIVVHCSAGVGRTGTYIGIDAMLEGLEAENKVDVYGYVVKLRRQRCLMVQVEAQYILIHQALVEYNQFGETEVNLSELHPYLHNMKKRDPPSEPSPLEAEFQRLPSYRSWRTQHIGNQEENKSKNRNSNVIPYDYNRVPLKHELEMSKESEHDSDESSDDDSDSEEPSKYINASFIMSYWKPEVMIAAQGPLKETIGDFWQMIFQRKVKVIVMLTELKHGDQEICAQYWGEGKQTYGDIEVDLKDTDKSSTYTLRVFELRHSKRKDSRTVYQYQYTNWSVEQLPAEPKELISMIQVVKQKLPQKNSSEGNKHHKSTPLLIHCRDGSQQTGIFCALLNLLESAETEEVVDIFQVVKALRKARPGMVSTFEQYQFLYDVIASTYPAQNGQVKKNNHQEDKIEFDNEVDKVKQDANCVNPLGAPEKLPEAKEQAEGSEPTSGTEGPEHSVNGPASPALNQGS
In assay [7] the target is LAR (Homo sapiens (Human), UniProt P10586). Description: PTP activity assay (DiFMUP substrate) with LAR D1 domain. Format: biochemical. The settings on record: in vitro.
LAR, sequence (P10586 1352-1607): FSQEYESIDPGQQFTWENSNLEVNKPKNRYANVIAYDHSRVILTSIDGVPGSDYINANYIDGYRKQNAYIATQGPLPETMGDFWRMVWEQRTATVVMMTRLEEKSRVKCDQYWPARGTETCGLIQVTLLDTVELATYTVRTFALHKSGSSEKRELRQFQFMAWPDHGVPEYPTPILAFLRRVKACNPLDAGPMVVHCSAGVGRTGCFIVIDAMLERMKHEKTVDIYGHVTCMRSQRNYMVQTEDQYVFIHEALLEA
The test system of assay [8] is Gab1 tyrosine phosphorylation and Gab1-Shp2 association. Description: EGF-induced Gab1 tyrosine phosphorylation and Gab1-Shp2 association in HEK293 cells. The assay is classed as cell-based. The settings on record: 20 μM, 3 h, EGF 5 ng/ml 5 min. As to the method: . Gab1 was immunoprecipitated from cell lysate supernatants. Immunoprecipitates were analyzed by immunoblotting with antibodies to phosphotyrosine (pY), Gab1, or Shp2. An aliquot of each cell lysate supernatant (30 μg) was also examined by immunoblotting with an antibody to Shp2 (bottom panel). pY-Gab1, tyrosine-phosphorylated Gab1.
Shp2 is activated in EGF-stimulated cells by binding to tyrosine-phosphorylated Gab1 (and Gab2 if it is also expressed) (Cunnick et al., 2001). […] . […] . […] .

Shp2, sequence (Q06124 205-593): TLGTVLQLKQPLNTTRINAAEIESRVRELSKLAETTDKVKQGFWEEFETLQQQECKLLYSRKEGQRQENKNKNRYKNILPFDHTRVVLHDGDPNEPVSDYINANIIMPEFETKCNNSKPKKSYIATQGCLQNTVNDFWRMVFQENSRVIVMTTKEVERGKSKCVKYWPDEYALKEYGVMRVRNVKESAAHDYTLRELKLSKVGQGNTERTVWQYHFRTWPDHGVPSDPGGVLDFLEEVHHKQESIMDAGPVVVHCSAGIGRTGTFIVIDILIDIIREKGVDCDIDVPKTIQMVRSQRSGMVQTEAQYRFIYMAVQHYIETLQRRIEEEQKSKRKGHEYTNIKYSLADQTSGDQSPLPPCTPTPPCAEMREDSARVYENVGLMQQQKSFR

Broadly, the IC50 is the concentration needed to halve the response being measured. In the case of `O=C1Nc2ccc(C(=O)O)cc2/C1=N/Nc1cccc(C(=O)O)c1` [HL2-052-3], the “% PTP activity” value in assay [1] (at 20 μM) was 56.94% (1) at 20 μM. For the same molecule, inhibition in assay [2] was half-maximal at 72.5 µM (IC50). Consider `O=C1Nc2ccc(S(=O)(=O)NCc3ccc(Cl)cc3)cc2/C1=N/Nc1ccccc1[N+](=O)[O-]` [RPM139, 3-[(2-Nitrophenyl)hydrazono]-2-oxo-2,3-dihydro-1H-indole-5-sulfonic acid 4-chlorobenzylamide], for which the “% PTP activity” value in assay [1] (concentration not given) was 12 ± 5% (12). The concentration for half-maximal inhibition (IC50) in assay [3] came out at 42.2 µM. For `O=S(=O)(O)c1ccc2cc(/N=N\c3cc(S(=O)(=O)O)c4cccnc4c3O)ccc2c1` [NSC-87877, 8-hydroxy-7-(6-sulfonaphthalen-2-yl)diazenyl-quinoline-5-sulfonic acid], the IC50 in assay [4] came out at 1.69 ± 0.407 µM; in assay [5], 65.6 ± 4.12 µM; in assay [6] it was 84.5 ± 16.2 µM; in assay [7] it was 151 ± 9.08 µM; in assay [3], 0.355 µM. The “EGF-stimulated Gab1 tyrosine phosphorylation” value in assay [8] is listed as “did not inhibit”. Besides, the “binding of Shp2 to Gab1” value in assay [8] is listed as “did not inhibit”.

`O=C1Nc2ccc(S(=O)(=O)O)cc2/C1=N/Nc1ccccc1[N+](=O)[O-]` [HL1-056]: in assay [1] (concentration not given), the “% PTP activity” value is recorded as 86 ± 3% (6). Moreover, the midpoint of inhibition in assay [2], the IC50, lay at 68.1 µM. For `CC(C)NS(=O)(=O)c1ccc2c(c1)/C(=N/Nc1cccc(C(=O)O)c1)C(=O)N2` [RPM297, 3-[N′-(5-Isopropylsulfamoyl-2-oxo-1,2-dihydro-indol-3-ylidene)hydrazino]benzoic acid], the “% PTP activity” value in assay [1] (at 20 μM) is reported as 54 ± 8% (2) At 20 μM. In addition, in assay [2], the half-inhibitory concentration (IC50) stood at 15.7 µM. On to `CC(C)NS(=O)(=O)c1ccc2c(c1)/C(=N/Nc1ccccc1[N+](=O)[O-])C(=O)N2` [RPM169, 3-[(2-Nitrophenyl)hydrazono]-2-oxo-2,3-dihydro-1H-indole-5-sulfonic acid isopropylamide], for which the “% PTP activity” value in assay [1] (concentration not given) is 8 + 3% (12). In assay [3], this molecule gave an IC50 of 110 µM. With `O=C1Nc2ccc(C(=O)O)cc2/C1=N/Nc1ccccc1C(=O)O` [HL2-052-2], in assay [1] (at 20 μM), the “% PTP activity” value is 46 ± 3% (2) at 20 μM. In assay [3], this molecule returned a half-inhibitory concentration (IC50) of 21.4 µM. For `NS(=O)(=O)c1ccc2c(c1)/C(=N/Nc1ccccc1[N+](=O)[O-])C(=O)N2` [RPM134, 3-[(2-Nitrophenyl)hydrazono]-2-oxo-2,3-dihydro-1H-indole-5-sulfonicamide], in assay [1] (concentration not given), the “% PTP activity” value was 13 ± 5% (12). Further, 93.5 µM corresponded to half-maximal inhibition in assay [3] (IC50).

For the molecule `O=C1Nc2ccc(C(=O)NCc3ccc(Cl)cc3)cc2/C1=N/Nc1cccc(C(=O)O)c1` [HL2-070-5], in assay [1] (at 20 μM), the “% PTP activity” value is reported as 62.32% (1) at 20 μM. Half-maximal inhibition in assay [2] (IC50) required 19.4 µM.

In turn, `O=C(O)c1ccc2cc(C(=O)Nc3c(O)cccc3C(=O)O)ccc2c1` [RPM204] registered a concentration for half-maximal inhibition (IC50) in assay [1] of 33 to 100 µM. In assay [1] (at 20 μM), the “% PTP activity” value was 68 ± 5% (3) at 20 uM. `O=C1Nc2ccc(S(=O)(=O)NCc3ccccn3)cc2/C1=N/Nc1ccccc1Cl` [HL2-016-7]: the “% PTP activity” value in assay [1] (concentration not given) is 41 ± 23% (12). Turning to `CN(C)CCCNS(=O)(=O)c1ccc2c(c1)/C(=N/Nc1ccccc1[N+](=O)[O-])C(=O)N2` [HL2-016-21], the “% PTP activity” value in assay [1] (concentration not given) is 77 ± 2% (6). The molecule `COC(=O)c1ccccc1N/C=C1\C(=O)Nc2ccc(S(=O)(=O)NC(C)C)cc21` [RPM335, 2-[(5-Isopropylsulfamoyl-2-oxo-1,2-dihydro-indol-3-ylidenemethyl)amino]benzoic acid methyl ester] displayed an IC50 in assay [1] of 33 to 100 µM. In assay [1] (at 20 μM), the “% PTP activity” value is reported as 54.19% (1) At 20 μM. Take `COc1cccc(CNS(=O)(=O)c2ccc3c(c2)/C(=N/Nc2ccccc2[N+](=O)[O-])C(=O)N3)c1` [RPM137, 3-[(2-Nitrophenyl)hydrazono]-2-oxo-2,3-dihydro-1H-indole-5-sulfonic acid 3-methoxybenzylamide]: the “% PTP activity” value in assay [1] (concentration not given) is listed as 31 ± 4% (12). For the molecule `CC(C)NS(=O)(=O)c1ccc2c(c1)/C(=N/Nc1ccccc1C(=O)O)C(=O)N2` [RPM186, 2-[N′-(5-Isopropylsulfamoyl-2-oxo-1,2-dihydro-indol-3-ylidene)-hydrazino]benzoic acid], the “% PTP activity” value in assay [1] (at 20 μM) was 0.8 ± 1% (3) at 20 μM. In assay [3], this molecule returned an IC50 of 10.8 µM. Take `CCNC(=O)c1cccc(N/N=C2\C(=O)Nc3ccc(S(=O)(=O)NC(C)C)cc32)c1` [RPM331, N-Ethyl-3-[N′-(5-isopropylsulfamoyl-2-oxo-1,2-dihydro-indol-3-ylidene)hydrazino]benzamide]: in assay [1] (at 20 μM), the “% PTP activity” value was 45 + 2% 92) at 20 μM. As for `CCC(C)NS(=O)(=O)c1ccc2c(c1)/C(=N/Nc1ccccc1Cl)C(=O)N2` (stereo not drawn) [HL2-016-13], the “% PTP activity” value in assay [1] (concentration not given) was 35 ± 4% (6).

Turning to `O=C1Nc2ccc(S(=O)(=O)NCc3ccc(Cl)cc3)cc2/C1=N/Nc1ccccc1C(=O)O` [RPM191, 2-[N′-[5-(4-Chloro-benzylsulfamoyl)-2-oxo-1,2-dihydro-indol-3-ylidene]hydrazino}benzoic acid], in assay [1], the IC50 was in the range of 33 to 100 µM. Besides, the “% PTP activity” value in assay [1] (at 20 μM) is 65.07% and 53.99%. For `CC(C)NC(=O)c1ccc2c(c1)/C(=N/Nc1ccccc1C(=O)O)C(=O)N2` [HL2-070-6], the “% PTP activity” value in assay [1] (at 20 μM) is recorded as 78.87% (1) at 20 μM.

As for `COC(=O)c1ccc2[nH]cc(C(=O)c3ccccc3)c2c1` [RPM341, 3-Benzoyl-1H-indole-5-carboxylic acid methyl ester], in assay [1] (at 20 μM), the “% PTP activity” value was 42 ± 10% (2) at 20 μM. In the case of `CC(C)NS(=O)(=O)c1ccc2c(c1)/C(=N/Nc1ccccc1)C(=O)N2` [RPM275, 3-(Phenylhydrazono)-2-oxo-2,3-dihydro-1H-indole-5-sulfonic acid isopropylamide], the “% PTP activity” value in assay [1] (at 20 μM) is recorded as 58.53% (1) at 20 μM.

As for `O=C1Nc2ccc(S(=O)(=O)O)cc2/C1=N/Nc1ccccc1` [RPM215, 2-Oxo-3-(phenylhydrazono)-2,3-dihydro-1H-indole-5-sulfonic acid], the “% PTP activity” value in assay [1] (at 20 μM) is on record as 51 ± 3% (3) at 20 μM.

In turn, `CC(C)NS(=O)(=O)c1ccc2c(c1)/C(=N/Nc1cccc(C(=O)NCc3cccnc3)c1)C(=O)N2` [RPM332, 3-[N′-(5-Isopropylsulfamoyl-2-oxo-1,2-dihydro-indol-3-ylidene)hydrazino]-N-pyridin-3-ylmethylbenzamide] gave an IC50 in assay [1] of 33 to 100 µM. Also, the “% PTP activity” value in assay [1] (at 20 μM) is 54 ± 7% (2) at 20 μM. For the molecule `O=C(O)c1cccc(NC(=O)c2ccc3cc(C(=O)O)ccc3c2)c1` [HL2-022-1], in assay [1] (concentration not given), the “% PTP activity” value is listed as 53 ± 4% (6). Molecule `O=C1Nc2ccc(S(=O)(=O)NCc3ccccn3)cc2/C1=N/Nc1ccccc1[N+](=O)[O-]` [RPM135, 3-[(2-Nitrophenyl)hydrazono]-2-oxo-2,3-dihydro-1H-indole-5-sulfonic acid (pyridin-2-ylmethyl)amide] yielded an IC50 in assay [1] of 33 to 100 µM. The “% PTP activity” value in assay [1] (concentration not given) is 47 ± 10% (12). With `O=C1Nc2ccc(S(=O)(=O)NCc3cccnc3)cc2/C1=N/Nc1ccccc1[N+](=O)[O-]` [HL2-016-20], the “% PTP activity” value in assay [1] (concentration not given) is listed as 68 ± 8% (6). `CCN(CC)C(=O)c1ccc2c(c1)/C(=N/Nc1ccccc1[N+](=O)[O-])C(=O)N2` [HL2-070-3]: the “% PTP activity” value in assay [1] (at 20 μM) is 14 ± 2% (2) at 20 μM. Consider `CC(C)NS(=O)(=O)c1ccc2c(c1)/C(=C/Nc1cccc(C(=O)O)c1)C(=O)N2` [RPM304, 3-[(5-Isopropylsulfamoyl-2-oxo-1,2-dihydro-indol-3-ylidenemethyl)amino]benzoic acid], for which the IC50 in assay [1] is 33 to 100 µM. The “% PTP activity” value in assay [1] (at 20 μM) was 82.31% (1) At 20 μM. Turning to `CCC(C)NS(=O)(=O)c1ccc2c(c1)/C(=N/Nc1ccccc1[N+](=O)[O-])C(=O)N2` (stereo not drawn) [RPM173, 3-[(2-Nitrophenyl)hydrazono]-2-oxo-2,3-dihydro-1H-indole-5-sulfonic acid sec-butylamide], in assay [1] (concentration not given), the “% PTP activity” value is recorded as 33 ± 7% (12). `O=C1Nc2ccc(S(=O)(=O)O)cc2/C1=N/Nc1ccccc1Cl` [HL1-058-1] showed an IC50 in assay [1] of 33 to 100 µM. The “% PTP activity” value in assay [1] (concentration not given) is recorded as 69 ± 9% (2). Take `CCN(CC)C(=O)c1ccc2c(c1)/C(=N/Nc1cccc(C(=O)O)c1)C(=O)N2` [HL2-070-2]: the “% PTP activity” value in assay [1] (at 20 μM) is listed as 57.16% (1) at 20 μM.

For `CN(Cc1ccccc1)S(=O)(=O)c1ccc2c(c1)/C(=N/Nc1ccccc1[N+](=O)[O-])C(=O)N2` [RPM136, 3-[(2-Nitrophenyl)hydrazono]-2-oxo-2,3-dihydro-1H-indole-5-sulfonic acid benzyl-methylamide], the “% PTP activity” value in assay [1] (concentration not given) is given as 39 ± 8% (12). With `NS(=O)(=O)c1ccc2c(c1)/C(=N/Nc1ccccc1C(=O)O)C(=O)N2` [RPM188, 2-[N′-(2-Oxo-5-sulfamoyl-1,2-dihydro-indol-3-ylidene)hydrazino]benzoic acid], the “% PTP activity” value in assay [1] (at 20 μM) is recorded as 65 ± 3% (3) at 20 μM. Take `COC(=O)c1ccc2cc(C(=O)Nc3c(O)cccc3C(=O)O)ccc2c1` [RPM202]: the concentration for half-maximal inhibition (IC50) in assay [1] was in the range of 33 to 100 µM. In assay [1] (at 20 μM), the “% PTP activity” value is given as 58 ± 7% (3) at 20 uM. Regarding `CC(C)NC(=O)c1ccc2c(c1)/C(=N/Nc1cccc(C(=O)O)c1)C(=O)N2` [HL2-070-7], the “% PTP activity” value in assay [1] (at 20 μM) is 53.62% (1) at 20 μM. As to `CN1C(=O)/C(=N\Nc2ccccc2[N+](=O)[O-])c2cc(S(=O)(=O)N(C)C)ccc21` [RPM154], the “% PTP activity” value in assay [1] (concentration not given) was 73 ± 3% (6). Same read-out and setting: next, `O=C1Nc2ccc(S(=O)(=O)NCc3cccnc3)cc2/C1=N/Nc1ccccc1Cl` [HL2-016-18]: 78 ± 10% (6).
